These results are taken from US9073940B2, “Tricyclic pyrazol amine derivatives” (MERCK SERONO SA, priority 2009, dated 2015).

Where a name gives a salt, the structure may show the parent alone.

Test [1] relates to 4 PI3K isoforms (Human recombinant GST-PI3K). Briefly: PI3K scintillation proximity assay, best IC50 obtained with the four isoforms (alpha, beta, delta, gamma). The settings on record: best IC50 obtained with the four isoforms of PI3K; read-out: Best potency measured on the 4 PI3K isoforms. The test is classed as biochemical.
In test [2] the test system is AKT phosphorylation (p-AKT Ser 473) in Ramos B-lymphocyte cell line. In words: Mechanistic on-target cell assay: flow cytometry of AKT phosphorylation after anti-human IGM stimulation. The format is cell-based. Here is the method: Mechanistic-On Target Cell Assay
The reaction was stopped by fixing the cells with Paraformaldehyde 4% (final) for 10 minutes at room temperature. Cells were washed once with Phosphate Buffer Saline (PBS), permabilized in PBS-Triton X-100 0.2% for 15 minutes at room temperature washed twice with PBS and once with PBS-4% serum. […] Cells were washed twice in PBS and resuspended in PBS. The cell suspension was passed on a FC500 flow cytometer (Beckman Coulter), gating on the IGM positive cells and measuring the AKT phosphorylation.

Turning to `COCCN1CCC[C@H](n2nc(C(=O)N3CCOCC3)c3c2-c2ccccc2S(=O)(=O)C3)C1` (single isomer, unassigned) [Example 346, 1-[1-(2-methoxyethyl)piperidin-3-yl]-3-(morpholin-4-ylcarbonyl)-1,4-dihydrothiochromeno[4,3-c]pyrazole 5,5-dioxide], the IC50 in test [1] came to 40 nM; in test [2], 128 nM.
In the same order, the values of `O=C(c1nn(CC2CCNCC2)c2c1CS(=O)(=O)c1ccccc1-2)N1CCOCC1` [Example 56, 3-(morpholin-4-ylcarbonyl)-1-(piperidin-4-ylmethyl)-1,4-dihydrothiochromeno[4,3-c]pyrazole 5,5-dioxide] are 531 nM and 8150 nM.
Take `O=C(c1nn([C@H]2CCCN(CCF)C2)c2c1CS(=O)(=O)c1ncccc1-2)N1CCOCC1` [Example 380]: in test [2], the IC50 was 320 nM.
For the compound `O=C(c1nn(C2CCCCC2)c2c1CS(=O)(=O)c1ncccc1-2)N1CCOCC1` [Example 79, 3-(Morpholin-4-ylcarbonyl)-1-cyclohexyl-1,4-dihydropyrazolo[3′,4′:4,5]thio pyrano[2,3-b]pyridine 5,5-dioxide], the IC50 worked out at 437 nM in test [1] and 492 nM in test [2].
In the same order, the values of `O=C(c1nn(C2CCCC2)c2c1CS(=O)(=O)c1ccccc1-2)N1CCOCC1` [Example 73, 1-Cyclopentyl-3-(morpholin-4-ylcarbonyl)-1,4-dihydrothiochromeno[4,3-c]pyrazole 5,5-dioxide] are 205 nM and 317 nM.
With `O=C(c1nn([C@H]2CCCN(C3CCOCC3)CC2)c2c1CS(=O)(=O)c1ccccc1-2)N1CCOCC1` (single isomer, unassigned) [Example 401], the IC50 in test [1] stood at 340 nM; in test [2], 3630 nM.
In the case of `O=C(c1nn(CCO)c2c1CS(=O)(=O)c1ccccc1-2)N1CCOCC1` [Example 46, 2-[3-(morpholin-4-ylcarbonyl)-5,5-dioxidothiochromeno[4,3-c]pyrazol-1(4H)-yl]ethanol], the values for the IC50 in test [1] and in test [2] were 661 nM and 680 nM, respectively.
Regarding `Nc1ccc2c(c1)-c1c(c(C(=O)N3CCOCC3)nn1-c1ccccc1)CS2(=O)=O` [Example 65, 3-(Morpholin-4-ylcarbonyl)-1-phenyl-1,4-dihydrothiochromeno[4,3-c]pyrazol-8-amine 5,5-dioxide], the IC50 in test [1] stood at 368 nM; in test [2], 251 nM.
Consider `CS(=O)(=O)NCc1ccc(-n2nc(C(=O)N3CCOCC3)c3c2-c2ccccc2S(=O)(=O)C3)cc1` [Example 66, N-{4-[3-(Morpholin-4-ylcarbonyl)-5,5-dioxidothiochromeno[4,3-c]pyrazol-1(4H)-yl]benzyl}methanesulfonamide], for which the IC50 in test [1] turned out to be 421 nM; in test [2] it was 942 nM.
In the case of “3-(morpholin-4-ylcarbonyl)-1-[1-(2-morpholin-4-ylethyl)piperidin-3-yl]-1,4-dihydrothiochromeno[4,3-c]pyrazole 5,5-dioxide [Example 345]”, the IC50 in test [1] was 16 nM; in test [2], 68 nM.
In the same order, the values of `CCCn1nc(C(=O)N2CCOCC2)c2c1-c1ccccc1S(=O)(=O)C2` [Example 39, 3-(morpholin-4-ylcarbonyl)-1-propyl-1,4-dihydrothiochromeno[4,3-c]pyrazole 5,5-dioxide] are 641 nM and 388 nM.
As to `O=C(c1nn(C2CCCCC2)c2c1CS(=O)(=O)c1ccccc1-2)N1CCOCC1` [Example 12, 1-cyclohexyl-3-(morpholin-4-ylcarbonyl)-1,4-dihydrothiochromeno[4,3-c]pyrazole 5,5-dioxide], the IC50 in test [1] came to 136 nM; in test [2] it was 167 nM.
In the same order, the values of `O=C(c1nn([C@@H]2CCN(C3CCOCC3)C2)c2c1CS(=O)(=O)c1ccccc1-2)N1CCOCC1` (single isomer, unassigned) [Example 403] are 45 nM and 214 nM.
In the same order, the values of `O=C(c1nn([C@H]2CCN(C3CCOCC3)C2)c2c1CS(=O)(=O)c1c(F)cccc1-2)N1CCOCC1` (single isomer, unassigned) [Example 355, 6-fluoro-3-(morpholin-4-ylcarbonyl)-1-[1-(tetrahydro-2H-pyran-4-yl)pyrrolidin-3-yl]-1,4-dihydrothiochromeno[4,3-c]pyrazole 5,5-dioxide hydrochloride salt] are 52 nM and 94 nM.
In the same order, the values of `CN(C)Cc1ccc(-n2nc(C(=O)N3CCOCC3)c3c2-c2ccccc2S(=O)(=O)C3)cc1` [Example 226, N,N-Dimethyl-1-{4-[3-(morpholin-4-ylcarbonyl)-5,5-dioxidothiochromeno[4,3-c]pyrazol-1(4H)-yl]phenyl}methanamine] are 43 nM and 492 nM.
Take `CC(C)(C)OC(=O)N1CCC(Cn2nc(C(=O)N3CCOCC3)c3c2-c2ccccc2S(=O)(=O)C3)CC1` [Example 43, tert-butyl 4-{[3-(morpholin-4-ylcarbonyl)-5,5-dioxidothiochromeno[4,3-c]pyrazol-1(4H)-yl]methyl}piperidine-1-carboxylate]: the IC50 in test [2] amounted to 534 nM.
`O=C(c1nn(-c2ccccc2)c2c1CS(=O)(=O)c1c(F)cccc1-2)N1CCOCC1` [Example 15, 6-fluoro-3-(morpholin-4-ylcarbonyl)-1-phenyl-1,4-dihydrothiochromeno[4,3-c]pyrazole 5,5-dioxide]: the IC50 in test [1] worked out at 424 nM; in test [2], 364 nM.
Regarding `CCn1nc(C(=O)N2CCOCC2)c2c1-c1ccccc1S(=O)(=O)C2` [Example 37, 1-ethyl-3-(morpholin-4-ylcarbonyl)-1,4-dihydrothiochromeno[4,3-c]pyrazole 5,5-dioxide], the results for the IC50 in test [1] and in test [2] were 601 nM and 493 nM, respectively.
Take `O=C(c1nn([C@H]2CCCN(CCN3CCOCC3)C2)c2c1CS(=O)(=O)c1c(F)cccc1-2)N1CCOCC1` (single isomer, unassigned) [Example 350, 6-fluoro-3-(morpholin-4-ylcarbonyl)-1-[1-(2-morpholin-4-ylethyl)piperidin-3-yl]-1,4-dihydrothiochromeno[4,3-c]pyrazole 5,5-dioxide hydrochloride salt]: the IC50 in test [1] came out at 16 nM; in test [2], 40 nM.
`O=C(c1nn(-c2ccc(CN3CCOCC3)cc2)c2c1CS(=O)(=O)c1ccccc1-2)N1CCOCC1` [Example 137] showed an IC50 in test [2] of 300 nM.
In the case of `O=C(c1nn([C@H]2CCCN(CCN3CCOCC3)C2)c2c1CS(=O)(=O)c1cc(F)ccc1-2)N1CCOCC1` (stereo in doubt) [Example 472, 7-fluoro-3-(morpholin-4-ylcarbonyl)-1-[1-(2-morpholin-4-ylethyl)piperidin-3-yl]-1,4-dihydrothiochromeno[4,3-c]pyrazole 5,5-dioxide], the IC50 came out at 14 nM in test [1] and 45 nM in test [2].
For the compound `COc1ccc(Cn2nc(C(=O)N3CCOCC3)c3c2-c2ccccc2S(=O)(=O)C3)cc1` [Example 38, 1-(4-methoxybenzyl)-3-(morpholin-4-ylcarbonyl)-1,4-dihydrothiochromeno[4,3-c]pyrazole 5,5-dioxide], the IC50 in test [1] worked out at 459 nM; in test [2] it was 942 nM.
In the same order, the values of `Cn1nc(C(=O)N2CCOCC2)c2c1-c1ccccc1S(=O)(=O)C2` [Example 34, 1-methyl-3-(morpholin-4-ylcarbonyl)-1,4-dihydrothiochromeno[4,3-c]pyrazole 5,5-dioxide] are 1750 nM and 1800 nM.
In the same order, the values of `O=C(c1nn(-c2ccccc2)c2c1CS(=O)(=O)c1ccccc1-2)N1CCOCC1` [Example 33, 3-(morpholin-4-ylcarbonyl)-1-phenyl-1,4-dihydrothiochromeno[4,3-c]pyrazole 5,5-dioxide] are 244 nM and 706 nM.
As to `COCCN(C)Cc1ccc(-n2nc(C(=O)N3CCOCC3)c3c2-c2ccccc2S(=O)(=O)C3)cc1` [Example 426, 2-Methoxy-N-methyl-N-{4-[3-(morpholin-4-ylcarbonyl)-5,5-dioxidothiochromeno[4,3-c]pyrazol-1(4H)-yl]benzyl}ethanamine], in test [1], the IC50 amounted to 113 nM.
On the same count and under the same terms, then `O=C(c1nn(-c2ccc(CN3CCOCC3)nc2)c2c1CS(=O)(=O)c1ccccc1-2)N1CCOCC1` [Example 216, 3-(Morpholin-4-ylcarbonyl)-1-[6-(morpholin-4-ylmethyl)pyridin-3-yl]-1,4-dihydrothiochromeno[4,3-c]pyrazole 5,5-dioxide], with 614 nM.
On the same count and under the same terms, then `CC(C)(CN1CCOCC1)c1ccc(-n2nc(C(=O)N3CCOCC3)c3c2-c2ccccc2S(=O)(=O)C3)cc1` [Example 461, 1-[4-(1,1-Dimethyl-2-morpholin-4-ylethyl)phenyl]-3-(morpholin-4-ylcarbonyl)-1,4-dihydrothiochromeno[4,3-c]pyrazole 5,5-dioxide], with 341 nM; and `O=C(c1nn(-c2ccc(CNC3CCCOC3)cc2)c2c1CS(=O)(=O)c1ccccc1-2)N1CCOCC1` (stereo not drawn) [Example 455, N-{4-[3-(Morpholin-4-ylcarbonyl)-5,5-dioxidothiochromeno[4,3-c]pyrazol-1(4H)-yl]benzyl}tetrahydro-2H-pyran-3-amine], with 224 nM; and `CC1CN(C(=O)c2nn(-c3ccccc3)c3c2CS(=O)(=O)c2ccccc2-3)CCO1` (stereo not drawn) [Example 163, 3-[(2-Methylmorpholin-4-yl)carbonyl]-1-phenyl-1,4-dihydrothiochromeno[4,3-c]pyrazole 5,5-dioxide], with 2160 nM.
The same measure, in the same setting: then `O=C(c1nn(C2CN(CCC3CCOCC3)C2)c2c1CS(=O)(=O)c1ccccc1-2)N1CCOCC1` [Example 405, 3-(Morpholin-4-ylcarbonyl)-1-{1-[2-(tetrahydro-2H-pyran-4-yl)ethyl]azetidin-3-yl}-1,4-dihydrothiochromeno[4,3-c]pyrazole 5,5-dioxide], with 95 nM.
